Source: patent publication US11007136B2, “Cosmetic composition for wrinkle reduction containing gypenoside isolated from Gynostemma pentaphyllum” (CELLTRION INC., priority 2015, dated 2021)

Key:
[1] = tested on: human dermal fibroblast neonatal; assay: Procollagen production (collagen synthesis promotion), ELISA kit; format: cell-based; conditions: 1 and 5 μg/ml, 48 h, versus positive control NAG at the same concentration, FIG. 3
Experimental: A human dermal fibroblast neonatal (Cascade Co.) was inoculated into a 24-well microplate (5×10^4 cells/well) by using a medium, in which Dulbeco's Modified Eagle's Medium (DMEM) was supplemented with 10% fetal bovine serum, thus being cultured under a condition of 37° C. and 5% CO2 for 24 hours. Then, the same was replaced with a serum-free DMEM medium and cultured for 24 hours, after which an appropriate amount of a sample fluid was treated so that a final concentration of each test compound could reach 1 μg/ml and 5 μg/ml. After being cultured for 48 hours, a cell culture fluid was collected and then an amount of procollagen was measured by using a collagen measurement kit of Takara Company (Takara Shuzo Co., Ltd.). First of all, the collected cell culture fluid was injected into a 96-well microplate, to which a primary collagen antibody was evenly applied, such that an antigen-antibody reaction could occur at 37° C. for three hours. The cell culture fluid was removed from the well and washed four times with PBS. A color causing material was injected into each well, after which a reaction took place at a room temperature for 15 minutes, such that 1 N sulfuric acid solution was added thereto, thus stopping the reaction. An optical density was measured at a wavelength of 450 nm by means of a spectrophotometer. […]

[2] = tested on: human dermal fibroblast neonatal; assay: Cytotoxicity test (MTT); format: cell-based; conditions: for HDFn Viability: 48 h, % control
Experimental: A human dermal fibroblast neonatal (Cascade Co.) was inoculated into a 24-well microplate (5×10^4 cells/well) by using a medium, in which Dulbeco's Modified Eagle's Medium (DMEM) was supplemented with 10% fetal bovine serum, thus being cultured under a condition of 37° C. and 5% CO2 for 24 hours. Then, the same was replaced with a serum-free DMEM medium and cultured for 24 hours, thus treating the Gynostemma pentaphyllum gypenoside fraction obtained from the Example 1 and the gypenosides UL4 and UL5 isolated therefrom, respectively. After being cultured for 48 hours, an MTT solution was added thereto, thus being cultured for four hours. The medium was removed therefrom and DMSO was added thereto, thus dissolving an MTT formazan. The MTT formazan dissolved in the DMSO was taken out and an optical density thereof was measured at 570 nm, thus being compared to a group without sample treatment and indicated as % control.

[3] = Titer stability of UL4 and UL5 within formulations (HPLC); format: physicochemical; conditions: for content stability Result: over 12 weeks
Experimental: As shown in Formulation Examples 1, 2 and 3, cosmetic compositions of a high viscosity emulsified formulation, a low viscosity emulsified formulation and a solubilized formulation, respectively comprising 0.2% of the Gynostemma pentaphyllum gypenoside fraction, were stored under a condition of 4 CC, 30 CC, 45° C. and sunlight for 12 weeks and changes with passage of time (% compared to an initial content) in the gypenosides UL4 and UL5, which were index ingredients for quantification out of the Gynostemma pentaphyllum gypenoside ingredients, were observed through an HPLC analysis, and results thereof were indicated in Tables 10 to 12.

In the case of CC(C)=CC1C[C@](O)([C@H]2CC[C@]3(C)[C@@H]2CC[C@@H]2[C@@]4(C=O)CC[C@H](O[C@@H]5OC[C@H](O)[C@H](O[C@@H]6OC[C@@H](O)[C@H](O)[C@H]6O)[C@H]5O[C@@H]5O[C@@H](C)[C@H](O)[C@@H](O)[C@H]5O)C(C)(C)[C@@H]4CC[C@]23C)[C@H](O)O1 (stereo partly drawn) [Gypenoside UL4, (23ξ)-3β,20β,21α-trihydroxy-19-oxo-21,23-epoxy-dammar-24-ene-3-O-[α-L-rhamnopyranosyl (1→2)][β-D-xylopyranosyl (1→3)]-α-L-arabinopyranoside], the “procollagen-producing effect compared with NAG” value [1] is reported as “the same or larger amount of procollagen”, the “HDFn Viability” value ([2]; 5 ug/ml) is reported as 98% and the “HDFn Viability” value ([2]; 10 ug/ml) is reported as 100%. For the same compound, the “HDFn Viability” value ([2]; 50 ug/ml) was 106%, the cytotoxicity ([2]; at concentrations promoting procollagen synthesis) was “did not show any cytotoxicity” and the “content, % compared to an initial content” value (“content, %” for short) ([3]; High viscosity emulsified formulation, 4° C., 1 week) was 101.9%. The “content, %” value ([3]; High viscosity emulsified formulation, 4° C., 2 weeks) was 95.9%, the “content, %” value ([3]; High viscosity emulsified formulation, 4° C., 4 weeks) was 102% and the “content, %” value ([3]; High viscosity emulsified formulation, 4° C., 8 weeks) was 101.4%. The “content, %” value ([3]; High viscosity emulsified formulation, 4° C., 12 weeks) was 104.1%, the “content stability Result” value ([3]; High viscosity emulsified formulation, 4° C.) was “Stable” and the “content, %” value ([3]; High viscosity emulsified formulation, 30° C., 1 week) was 105.2%. The “content, %” value ([3]; High viscosity emulsified formulation, 30° C., 2 weeks) was 103.1%, the “content, %” value ([3]; High viscosity emulsified formulation, 30° C., 4 weeks) was 104.4% and the “content, %” value ([3]; High viscosity emulsified formulation, 30° C., 8 weeks) was 105.7%. For the same compound, the “content, %” value ([3]; High viscosity emulsified formulation, 30° C., 12 weeks) was 108.2%, the “content stability Result” value ([3]; High viscosity emulsified formulation, 30° C.) was “Stable” and the “content, %” value ([3]; High viscosity emulsified formulation, 45° C., 1 week) was 105.3%. The “content, %” value ([3]; High viscosity emulsified formulation, 45° C., 2 weeks) was 108.2%, the “content, %” value ([3]; High viscosity emulsified formulation, 45° C., 4 weeks) was 107.6% and the “content, %” value ([3]; High viscosity emulsified formulation, 45° C., 8 weeks) was 108.1%. The “content, %” value ([3]; High viscosity emulsified formulation, 45° C., 12 weeks) was 107.1%, the “content stability Result” value ([3]; High viscosity emulsified formulation, 45° C.) was “Stable” and the “content, %” value ([3]; High viscosity emulsified formulation, Sunlight, 1 week) was 102.4%. For the same compound, the “content, %” value ([3]; High viscosity emulsified formulation, Sunlight, 2 weeks) was 99.8%, the “content, %” value ([3]; High viscosity emulsified formulation, Sunlight, 4 weeks) was 101.2% and the “content, %” value ([3]; High viscosity emulsified formulation, Sunlight, 8 weeks) was 99.4%. The “content, %” value ([3]; High viscosity emulsified formulation, Sunlight, 12 weeks) was 103.6%, the “content stability Result” value ([3]; High viscosity emulsified formulation, Sunlight) was “Stable” and the “content, %” value ([3]; Low viscosity emulsified formulation, 4° C., 1 week) was 100.1%. For the same compound, the “content, %” value ([3]; Low viscosity emulsified formulation, 4° C., 2 weeks) was 102.4%, the “content, %” value ([3]; Low viscosity emulsified formulation, 4° C., 4 weeks) was 101.2% and the “content, %” value ([3]; Low viscosity emulsified formulation, 4° C., 8 weeks) was 94.9%. For the same compound, the “content, %” value ([3]; Low viscosity emulsified formulation, 4° C., 12 weeks) was 94.1%, the “content stability Result” value ([3]; Low viscosity emulsified formulation, 4° C.) was “Stable” and the “content, %” value ([3]; Low viscosity emulsified formulation, 30° C., 1 week) was 105.0%. The “content, %” value ([3]; Low viscosity emulsified formulation, 30° C., 2 weeks) was 101.8%, the “content, %” value ([3]; Low viscosity emulsified formulation, 30° C., 4 weeks) was 101.6% and the “content, %” value ([3]; Low viscosity emulsified formulation, 30° C., 8 weeks) was 104.1%. The “content, %” value ([3]; Low viscosity emulsified formulation, 30° C., 12 weeks) was 105.2%, the “content stability Result” value ([3]; Low viscosity emulsified formulation, 30° C.) was “Stable” and the “content, %” value ([3]; Low viscosity emulsified formulation, 45° C., 1 week) was 101.9%. The “content, %” value ([3]; Low viscosity emulsified formulation, 45° C., 2 weeks) was 106.2%, the “content, %” value ([3]; Low viscosity emulsified formulation, 45° C., 4 weeks) was 105.9% and the “content, %” value ([3]; Low viscosity emulsified formulation, 45° C., 8 weeks) was 95.6%. For the same compound, the “content, %” value ([3]; Low viscosity emulsified formulation, 45° C., 12 weeks) was 99.3%, the “content stability Result” value ([3]; Low viscosity emulsified formulation, 45° C.) was “Stable” and the “content, %” value ([3]; Low viscosity emulsified formulation, Sunlight, 1 week) was 96.3%. The “content, %” value ([3]; Low viscosity emulsified formulation, Sunlight, 2 weeks) was 99.5%, the “content, %” value ([3]; Low viscosity emulsified formulation, Sunlight, 4 weeks) was 100.5% and the “content, %” value ([3]; Low viscosity emulsified formulation, Sunlight, 8 weeks) was 99.8%. The “content, %” value ([3]; Low viscosity emulsified formulation, Sunlight, 12 weeks) was 102%, the “content stability Result” value ([3]; Low viscosity emulsified formulation, Sunlight) was “Stable” and the “content, %” value ([3]; Solubilized formulation, 4° C., 1 week) was 98.8%. For the same compound, the “content, %” value ([3]; Solubilized formulation, 4° C., 2 weeks) was 91.9%, the “content, %” value ([3]; Solubilized formulation, 4° C., 4 weeks) was 98.7% and the “content, %” value ([3]; Solubilized formulation, 4° C., 8 weeks) was 97.6%. For the same compound, the “content, %” value ([3]; Solubilized formulation, 4° C., 12 weeks) was 99.5%, the “content stability Result” value ([3]; Solubilized formulation, 4° C.) was “Stable” and the “content, %” value ([3]; Solubilized formulation, 30° C., 1 week) was 100.0%. The “content, %” value ([3]; Solubilized formulation, 30° C., 2 weeks) was 103.2%, the “content, %” value ([3]; Solubilized formulation, 30° C., 4 weeks) was 102.7% and the “content, %” value ([3]; Solubilized formulation, 30° C., 8 weeks) was 98.5%. The “content, %” value ([3]; Solubilized formulation, 30° C., 12 weeks) was 104.5%, the “content stability Result” value ([3]; Solubilized formulation, 30° C.) was “Stable” and the “content, %” value ([3]; Solubilized formulation, 45° C., 1 week) was 102.8%. The “content, %” value ([3]; Solubilized formulation, 45° C., 2 weeks) was 101.6%, the “content, %” value ([3]; Solubilized formulation, 45° C., 4 weeks) was 94.2% and the “content, %” value ([3]; Solubilized formulation, 45° C., 8 weeks) was 97.2%. For the same compound, the “content, %” value ([3]; Solubilized formulation, 45° C., 12 weeks) was 94.9%, the “content stability Result” value ([3]; Solubilized formulation, 45° C.) was “Stable” and the “content, %” value ([3]; Solubilized formulation, Sunlight, 1 week) was 98.8%. For the same compound, the “content, %” value ([3]; Solubilized formulation, Sunlight, 2 weeks) was 94.8%, the “content, %” value ([3]; Solubilized formulation, Sunlight, 4 weeks) was 98.4% and the “content, %” value ([3]; Solubilized formulation, Sunlight, 8 weeks) was 98%. For the same compound, the “content, %” value ([3]; Solubilized formulation, Sunlight, 12 weeks) was 94.6% and the “content stability Result” value ([3]; Solubilized formulation, Sunlight) was “Stable”.
